Data: patent publication US7157453B2, “Urea substituted imidazoquinolines” (3M Innovation Properties Company, priority 1999, dated 2007)

Assays:
[1] = system: tumor necrosis factor (α); assay: Cytokine Induction in Human Cells: tumor necrosis factor (α) by ELISA; type: cell-based; settings: PBMC; human PBMCs, incubated 18 to 24 hours, lowest concentration found to induce tumor necrosis factor
How it was run: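 Healthy-donor PBMCs (1.5–2×10^6 cells/mL final, RPMI with 10% FBS) incubated 18–24 h at 37 °C with compound in three- or ten-fold serial dilutions, DMSO ≤1% final. Supernatant TNF measured by ELISA; value is lowest concentration inducing TNF.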

interferon (α) = assay: Cytokine Induction in Human Cells: interferon (α) by ELISA; type: cell-based; settings: PBMC; human PBMCs, incubated 18 to 24 hours, lowest concentration found to induce interferon
How it was run: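 Healthy-donor human PBMCs (1.5–2×10^6 cells/mL final, RPMI with 10% FBS) exposed to serially diluted compound (≤1% DMSO) for 18–24 h at 37 °C, 5% CO2. Supernatant IFN-α measured by ELISA; value reported is lowest concentration inducing interferon.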

| Compound | melting point [°C] | minimal effective concentration [1] [µM] | minimal effective concentration (interferon (α)) [µM] |
| --- | --- | --- | --- |
| CCCc1nc2c(N)nc3ccccc3c2n1CCCCNC(=O)Nc1ccccc1 [Example 160, N-[4-(4-amino-2-propyl-1H-imidazo[4,5-c]quinolin-1-yl)butyl]-N′-phenylurea] | 182.8 to 184 | 1.11 | 0.12 |
| CCCCNC(=O)NCCCn1c(CCOC)nc2c(N)nc3ccccc3c21 [Example 162, N-{3-[4-amino-2-(2-methoxyethyl)-1H-imidazo[4,5-c]quinolin-1-yl]propyl}-N′-butylurea] | 159 to 160 | 0.04 | 0.01 |
| COCCc1nc2c(N)nc3ccccc3c2n1CCCNC(=O)N1CCOCC1 [Example 163, N-{3-[4-amino-2-(2-methoxyethyl)-1H-imidazo[4,5-c]quinolin-1-yl]propyl}morpholine-4-carboxamide] | 194 to 196 | 0.01 | 0.01 |
| CCCCc1nc2c(N)nc3ccccc3c2n1CCCCNC(=O)Nc1ccccc1 [Example 164, N-[4-(4-amino-2-butyl-1H-imidazo[4,5-c]quinolin-1-yl)butyl]-N′-phenylurea] | 185 to 187 | 0.12 | 0.04 |
| Cc1nc2c(N)nc3c(c2n1CCCCNC(=O)N1CCOCC1)CCCC3 [Example 170, N-[4-(4-amino-2-methyl-6,7,8,9-tetrahydro-1H-imidazo[4,5-c]quinolin-1-yl)butyl]morpholine-4-carboxamide] | 133.6 to 134.6 | 10 | 0.12 |
| Nc1nc2ccccc2c2c1nc(CCCOc1ccccc1)n2CCCCNC(=O)N1CCOCC1 [Example 171, N-{4-[4-amino-2-(3-phenoxypropyl)-1H-imidazo[4,5-c]quinolin-1-yl]butyl}morpholine-4-carboxamide] | 71.5 to 72.1 | 10 | > 30 |
| CC(C)(C)OC(=O)NCCCn1cnc2c(N)nc3ccccc3c21 [Example 173, tert-butyl 3-(4-amino-1H-imidazo[4,5-c]quinolin-1-yl)propylcarbamate] | 196 to 198 | 10 | 1.11 |
| CC(C)(C)OC(=O)NCCCn1c(CCCOc2ccccc2)nc2c(N)nc3ccccc3c21 [Example 174, tert-butyl 3-[4-amino-2-(3-phenoxypropyl)-1H-imidazo[4,5-c]quinolin-1-yl]propylcarbamate] | 151 to 153 | > 30 | > 30 |
| CCOCc1nc2c(N)nc3ccccc3c2n1CCCNC(=O)OC(C)(C)C [Example 175, tert-butyl 3-[4-amino-2-(ethoxymethyl)-1H-imidazo[4,5-c]quinolin-1-yl]propylcarbamate] | 124 to 126 | 0.37 | 0.04 |
| Cc1nc2c(N)nc3ccccc3c2n1CCCNC(=O)OC(C)(C)C [Example 176, tert-butyl 3-(4-amino-2-methyl-1H-imidazo[4,5-c]quinolin-1-yl)propylcarbamate] | 112 to 115 | 1.11 | 0.12 |
| CCOCc1nc2c(N)nc3ccccc3c2n1CCNC(=O)OC(C)(C)C [Example 177, tert-butyl 2-[4-amino-2-(ethoxymethyl)-1H-imidazo[4,5-c]quinolin-1-yl]ethylcarbamate] | 201 to 202 | 0.37 | 0.04 |
| COCCc1nc2c(N)nc3ccccc3c2n1CCNC(=O)OC(C)(C)C [Example 178, tert-butyl 2-[4-amino-2-(methoxyethyl)-1H-imidazo[4,5-c]quinolin-1-yl]ethylcarbamate] | 173 to 175 | 1.11 | 0.12 |
